Results published in US8030444B2, “Microbicidal compositions comprising human CD38 polypeptides derived from the extracellular membrane-proximal region” (priority 2002, dated 2011).
Where two headings read alike, the source gives them in different places. Ends that are not written are not given here.

What was measured:
[1] = tested on: primary HIV-1 isolates (R5); test: Infection of PBMC by primary HIV-1 isolates, p24 ELISA; format: cell-based
[2] = biological target: T1, recombinant soluble human (rsh) CD4 (Homo sapiens, UniProt P01730); test: Binding of biotin-conjugated peptide to plate-adsorbed rshCD4 (ELISA); conditions: 0.1-10 μM peptide
T1 construct: recombinant soluble human (rsh) CD4 (2 μg/ml) (R&D Systems); purchased R&D Systems
Description: Synthetic peptides from CD38 (SEQ ID NO:23) were conjugated with biotin (Pierce) as described in Wilchek, M., and Bayer, E. A., “Avidin-biotin technology,” Methods Enzymol., 184:1-746 (1990). Briefly, recombinant soluble human (rsh) CD4 (2 μg/ml) (R&D Systems) was adsorbed onto wells of 96-well-ELISA plates. Wells were then saturated with phosphate buffer saline (PBS)+2% bovine serum albumin (BSA), washed with PBS+1% BSA+0.05% Triton X-100, and the plates were incubated for 2 h at 37° C. with 100 μL of different concentrations (0.1-10 μM) of biotin-conjugated peptide. After six washes, 100 microl of streptavidin-conjugated horseradish peroxidase (HRP) from a commercially available HIV-1 p24 ELISA kit (NEN) diluted 1:100 in PBS+1% BSA was added to the wells for 30 min. at room temperature. After six more washes, the wells were incubated in the dark for 30 min. at room temperature with 100 μL of o-phenylenediamine (OPD tablets-Sigma), a chromogenic substrate for HRP diluted in phosphate-citrate buffer pH 5.0 as indicated in the Manufacturer's instructions. Then, the reaction was stopped by adding to each well 100 μL of 4 N sulfuric acid. Plates were read at 450 nm using an automated ELISA reader. […] Negative controls were run by incubating the wells with each of the titrated peptide in the absence of rshCD4 and performing the same steps described above. […]

MT-4 cells = test: Toxicity assays (trypan blue, MTT, propidium iodide/annexin V) on MT-4 cells; format: cell-based
Description: (§1) Cell proliferation was assessed by sequential counts of the number of live cells per ml of cell cultures by the trypan-blue exclusion method. Cell viability and apoptosis were analyzed by the methyl tetrazolium (MTT) method (Sigma-Aldrich) according to a procedure previously described in Savarino, A., Calosso, L., Piragino, A., Martini, C., Gennero, L., Pescarmona, G. P., and Pugliese, A. (1999). Modulation of surface transferrin receptors in lymphoid cells de novo infected with human immunodeficiency virus type-1. Cell. Biochem. Funct 17, 47-55, the contents of which are hereby incorporated in their entirety, and by propidium iodide/annexin V FITC staining (MedSystems Diagnostics GmbH, Vienna, Austria) following the manufacturer's instructions.
(§2) Cells (from established cell lines or primary cultures) were resuspended at 2.5×10^5/ml in the presence of 0, 0.1, 1, 10 and 100 nM CD3851-74 MBP. Then, 200 μL portions were transferred to microtiter trays and maintained at 37° C. […] Cell viability was monitored daily by trypan blue-dye exclusion. Cell proliferation was assessed by sequential counts of the number of live cells per ml of cell cultures by the trypan-blue exclusion method. Cell viability and apoptosis were analyzed by the methyl tetrazolium (MTT) method, and by propidium iodide/annexin V fluorescein isothiocyanate (FITC) staining following the manufacturer's instructions. […]

[3] = tested on: HIV-1IIIB-infected MT-4 cells; test: HIV-1 cytopathogenicity in MT-4 cells, re-clustering after cluster disruption; format: cell-based; conditions: five days post-infection with HIV-1IIIB, 100 μM (FIG. 6)
Description: MT-4 cells display a typical clustered pattern. When infected with HIV-1IIIB, MT-4 cells lose the capacity of forming clusters. At five days post-infection, clusters were dissociated by pipetting, and reclustering was examined microscopically after a 3-h incubation at 37° C., as described by Pauwels et al. Pauwels, R., et al., “Sensitive and rapid assay on MT-4 cells for detection of antiviral compounds against the AIDS virus,” J Virol Methods, 16: 171-185 (1987). In MT-4 cells, in fact, HIV-1IIIB acts as a slow/low syncytium-inducing strain whose cytopathic effect consists in loss of cell ability to cluster and is strictly correlated to the level of viral replication.

HIV-1IIIB [4] = tested on: HIV-1IIIB
HeLa cells = test: Toxicity assays (trypan blue, MTT, propidium iodide/annexin V) on HeLa cells; format: cell-based; conditions: 0.1-100 nM
Description: as §1, §2

[5] = tested on: primary peripheral blood mononuclear cells (PBMC); test: Toxicity assays (trypan blue, MTT, propidium iodide/annexin V) on PBMC; format: cell-based
Description: as §1, §2

[6] = biological target: FITC-conjugated HIV-1IIIB gp120; test: gp120 attachment assay, FITC-gp120 staining of cells by flow cytometry; format: binding; conditions: MT-2 cells, 50 nM peptide, 5 μg/ml gp120
Description: In gp120 attachment assays, cells were incubated for 30 min. at 4° C. with 2 μg/ml of FlTC-conjugated HIV-1IIIB gp120 (gp120IIIB, Intracell Corp, London, UK) in PBS plus 2% albumin plus 0.01% NaN3 (PBS A/A) in the presence or absence of CD38 or CD38-derived molecules. Cells were then washed three times in PBS A/A, and fluorescence was acquired by flow cytometry. Fluorescence data were expressed as MeFI and normalized for CD4 expression where necessary.
In gp120 attachment assays, cells were incubated with saturating concentrations of FITC-conjugated gp120 from the HIV-1IIIB strain (gp120IIIB) (Intracell Corp, London, UK) in the presence or absence of CD3851-74, (SEQ ID NO:15, 21), and acquired fluorescence flow-cytometrically. The MeFI was used as an estimate of gp120 binding to cells.
HIV-1 gp120 binding experiments confirmed that CD3851-74 MBP inhibits at the level of gp120 attachment to target cells. In these experiments, MT-2 cells were incubated for 30 min. at 4° C. with saturating concentrations (5 μg/ml) of fluorescein isothiocyanate-labeled (FITC) HIV-1IIIB gp 120 (gp 120IIIB) in PBS plus 2% albumin plus 0.01% NaN3 (PBS A/A) in the presence or absence of 50 nM CD3851-74 MBP. Cells were then washed three times in PBS A/A, and fluorescence was acquired by flow cytometry.

PHA-stimulated PBMC = test: Cytokine production by PBMC in response to PHA; format: cell-based
Description: To evaluate whether CD3851-74 MBP might costimulate activation of PBMC, tests were conducted to evaluate cytokine production in response to PHA. For this purpose, PBMC were ficoll-separated and incubated with 0, 0.1, 1, 10 nM CD3851-74 MBP, in the presence of 0.1 or 1 μg/ml PHA. Then, supernatants were collected at 4, 12, 24, and 36 h of incubation, and the levels of TNF-alpha, IFN-gamma, IL-02, IL-4, IL-5, IL-6 and IL-10 were tested by ELISA (R and D Systems, Minneapolis, Minn.) or by cytofluorimetric multi-cytokine bead arrays (Becton-Dickinson). […] Some of these effects are depicted in the FIGS. 14, 15, 16 and 17. […] However, if significant, it would not be of safety concern. By contrast, it would support the anti-HIV effect of CD3851-74 MBP, since both TNF-alpha and IL-6 promote HIV-1 replication. […] De S K, Devadas K, Notkins A L. Elevated levels of tumor necrosis factor alpha (TNF-alpha) in human immunodeficiency virus type 1-transgenic mice: prevention of death by antibody to TNF-alpha. J Virol 2002; 76: 11710-4.

[7] = Water solubility of peptides
HIV-1IIIB [8] = test: HIV-1IIIB infection of wild-type MT-2 cells in presence of soluble CD38; format: cell-based
Description: In acute infection assays, the appropriate cell types were incubated at 37° C. for 2 h with the viral stock suspensions at a multiplicity of infection (MOI) of approximately 0.1, unless otherwise specified. After three washes, cells were incubated in fresh culture medium for 7 days at 37° C., and cell-free supernatants at different intervals post-infection were harvested for ELISA measurement of HIV-1 p24 (NEN Life Science Prod., Boston Mass.) or HIV-2 p27 (Coulter, Hialeah, Fla.). Where necessary, soluble CD38-derived molecules were added during the step of virus adsorption onto cells.
First, attention was focused on the intracellular (IC) domain of CD38. HIV-1IIIB was used to infect both a MT-2 cell line transfected with a truncated form of CD38 lacking the IC domain (CD3824-300) and wild-type MT-2 cells in the presence of a recombinant soluble form of CD38 consisting solely of the extracellular (EC) domain (sCD3845-300).

(GPGTTK)8 polylysin (also: eight copies on polylysine core (MBP); listed as Homo sapiens) [GPGTTK MBP]
anti-HIV activity against higher viral challenge ([1]; HIV-1UG3, PBMC, MOI 0.5, 1 nM): maintains the anti-HIV activity
association of biotin-conjugated peptide to rshCD4 (O.D.) [2]: associated to rshCD4 in a manner dependent on the concentration
toxic effects on MT-4 cells (MT-4 cells; concentrations showing anti-HIV effects): no toxic effects
ability of infected MT-4 cultures to form clusters [3]: maintained a partial ability to form clusters
inhibition of HIV-1IIIB replication (in words) (HIV-1IIIB [4]; MT-4 cells, p24 ELISA): dose-dependently inhibited infection

(SGPGTTKRFPETVLACVKYTEIH)8 polylysin [CD3851-74 MBP]
cell proliferation, viability and death (HeLa cells): does not alter cell proliferation and viability nor does it induce death
toxicity in uninfected PBMC cultures ([5]; 0.1 nM-100 nM, growth kinetics, trypan blue, MTT, annexin V/propidium iodide): did not display any significant toxicity
cell proliferation, viability and death ([5]; PBMC, PHA-stimulated or unstimulated, three donors, 0.1-100 nM): does not alter cell proliferation and viability nor does it induce death
growth kinetics of primary R5 isolates subtype C (VI 829) and subtype A (UG3) ([1]; PBMC, 1 nM): delayed the growth kinetics
estimated selectivity index ([1]; antiviral effects at 0.1 nM, no toxicity up to 100 nM): 1000
concentration range inhibiting infection of PBMC by primary HIV-1 isolates ([1]; pilot experiments, PBMC, isolate VI 829): 0.1 to 10 nM
concentration at which antiviral effects were detected ([1]; see Example IV): 0.1 nM
cell proliferation, viability and death (MT-4 cells; MT-4 cells, 0.1-100 nM): does not alter cell proliferation and viability nor does it induce death
gp120-FITC binding to cells [6]: down-modulated
IL-2, IL-4, IL-5 and IL-10 levels versus untreated cells (PHA-stimulated PBMC; PBMC, 0.1 or 1 μg/ml PHA, 0.1, 1, 10 nM peptide): essentially identical
TNF-alpha and IL-6 levels (PHA-stimulated PBMC; PHA-stimulated PBMC, decrease did not reach statistical significance): transient and donor-dependent inhibition
range of inhibitory concentrations lower than that of CD3851-74 (HIV-1IIIB [4]; HIV-1 replication, compared with Example I): approximately 1000 fold
concentration range of dose-dependent inhibition of HIV-1IIIB infection (HIV-1IIIB [4]; MT-4 cells, p24 ELISA Day 3): 1 to 10 nM
EC50 (HIV-1IIIB [4]; read-out: EC50, inhibition of HIV-1IIIB infection, MT-4 cells, p24 ELISA Day 3, peptide added only during virus adsorption): 12 nM
EC90 (HIV-1IIIB [4]; read-out: EC90, inhibition of HIV-1IIIB infection, MT-4 cells, p24 ELISA Day 3, peptide added only during virus adsorption): 75 nM

RQQWSGPGTTKRFPETVLARCVKYTEIH [SEQ ID NO: 17]
water solubility [7]: water-insolubility

RQTWSGPGTTKRFPETVLARCVKYTEIH [SEQ ID NO: 13]
water solubility [7]: water-insolubility

RWRQQWSGPGTTKRFPETVLARCVKYTEIH [SEQ ID NO: 16]
water solubility [7]: water-insolubility

RWRQTWSGPGTTK [SEQ ID NO: 14]
water solubility [7]: water-insolubility

RWRQTWSGPGTTKRFPETVLARCVKYTEIH [SEQ ID NO: 12]
water solubility [7]: water-insolubility

SGPGTTKRFPETVLARCVKYTEIH [CD3851-74]
toxic effects at the concentrations used (cell cultures): did not carry out toxic effects
EC50 (HIV-1IIIB [4]; 1IIIB, 2 h): 2200 nM
EC90 (HIV-1IIIB [4]; 1IIIB, 2 h): 182000 nM

sCD3845-300: recombinant soluble form of CD38 consisting solely of the extracellular (EC) domain
HIV infection of MT-2 cells (HIV-1IIIB [8]): inhibited HIV infection
